Measured values as given in patent US20260365653A1, “IRREVERSIBLE MUTEGFR INHIBITORS” (Bayer Aktiengesellschaft, priority 2022, published 2026).

Columns and labels:
BA/F3 (insSVD) cells = assay: Ba/F3-EGFR-insSVD cell survival assay (Cell Titer-Glo); format: cell-based; conditions: Table 3a, cell survival, Cell Titer-Glo, with 10 ng/ml EGF, without IL-3
How it was run: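 CellTiter-Glo luminescence read after 48 h compound exposure at 37° C. Cells: IL-3-independent Ba/F3 lines transduced with EGFR-insSVD or EGFR-insSVD T790M, maintained on 10 ng/ml EGF and seeded at 4000 per well.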

[1] = target: T1, mutEGFR (D770_N771insSVD) (Homo sapiens, UniProt P00533, DUP768-770); assay: Exon20-Mutant-EGFR (D770_N771insSVD) kinase assay (TR-FRET); format: biochemical; conditions: mutEGFR (D770_N771insSVD) kinase assay IC50, Table 2a; D770_N771insSVD; 2 mM ATP
T1 construct: GST-EGFR #3 (SVD between D770 and N771); made in house; host or cells: Sf9 insect cells (baculovirus)

[2] = target: T2, mutEGFR (D770_N771insNPG, T790) (Homo sapiens, UniProt P00533, INS770NPG/T790M); assay: mutEGFR (D770_N771insNPG, T790) kinase assay; format: biochemical; conditions: Table 2a, D770_N771insNPG
T2 construct: exact insNPG construct not described; in-house EGFR proteins were N-terminal GST fusions from baculovirus/insect cells (borders R669-A1210 given only for WT, insSVD, insASV)
Description: The different EGFR proteins used in the biochemical kinase activity inhibition assays were generated inhouse by expression in insect cells using Baculo Virus system and subsequent purification as described in the following paragraphs.
The cDNAs encoding the various protein sequences from human EGFR human (P00533) were optimized for expression in eukaryotic cells and synthesized by the GeneArt Technology at Life Technologies.

T1 sequence (P00533 with tags, fused parts or gaps DUP768-770): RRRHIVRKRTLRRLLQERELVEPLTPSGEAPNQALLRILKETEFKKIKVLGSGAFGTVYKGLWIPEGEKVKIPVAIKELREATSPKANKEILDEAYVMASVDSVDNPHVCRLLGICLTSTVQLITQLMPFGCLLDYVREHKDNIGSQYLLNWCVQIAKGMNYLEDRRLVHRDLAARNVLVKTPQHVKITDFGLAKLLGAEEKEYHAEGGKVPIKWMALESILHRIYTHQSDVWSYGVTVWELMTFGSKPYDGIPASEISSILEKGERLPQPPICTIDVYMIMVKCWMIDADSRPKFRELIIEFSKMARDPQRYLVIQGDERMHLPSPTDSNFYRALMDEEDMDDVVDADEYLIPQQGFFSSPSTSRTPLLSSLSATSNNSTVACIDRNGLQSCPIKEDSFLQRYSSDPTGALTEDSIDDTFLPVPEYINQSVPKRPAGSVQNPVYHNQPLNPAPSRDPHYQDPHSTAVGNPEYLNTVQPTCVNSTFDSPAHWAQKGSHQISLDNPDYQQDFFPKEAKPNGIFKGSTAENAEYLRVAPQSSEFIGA
T2 sequence (P00533 with tags, fused parts or gaps INS770NPG/T790M limits assumed): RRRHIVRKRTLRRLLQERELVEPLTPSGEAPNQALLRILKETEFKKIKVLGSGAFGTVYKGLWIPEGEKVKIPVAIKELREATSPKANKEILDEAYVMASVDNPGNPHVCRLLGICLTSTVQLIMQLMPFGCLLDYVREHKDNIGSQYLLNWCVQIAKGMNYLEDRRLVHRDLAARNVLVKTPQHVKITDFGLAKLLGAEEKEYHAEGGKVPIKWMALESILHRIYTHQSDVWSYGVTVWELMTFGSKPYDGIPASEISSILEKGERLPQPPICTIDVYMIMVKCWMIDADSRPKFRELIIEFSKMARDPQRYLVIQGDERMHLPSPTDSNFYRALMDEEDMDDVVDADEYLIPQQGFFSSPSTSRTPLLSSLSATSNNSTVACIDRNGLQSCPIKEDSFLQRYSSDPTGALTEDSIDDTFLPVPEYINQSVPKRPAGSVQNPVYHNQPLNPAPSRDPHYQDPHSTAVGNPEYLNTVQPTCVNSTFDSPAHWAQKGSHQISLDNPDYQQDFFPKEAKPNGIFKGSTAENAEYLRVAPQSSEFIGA

Compound	IC50 [1] [nM]	IC50 [2] [nM]	IC50 (BA/F3 (insSVD) cells; Mus musculus, BaF3, 48 h) [nM]	IC50 (BA/F3 (insSVD) cells; 48 h) [nM]
C=CC(=O)N1CCn2nc(-c3ccc(F)cc3)c(-c3ccnc4[nH]cc(C)c34)c2C1C (single isomer, unassigned; isomer 2) [Example 250, 1-(2-(4-fluorophenyl)-4-methyl-3-(3-methyl-1H-pyrrolo[2,3-b]pyridin-4-yl)-6,7-dihydropyrazolo[1,5-a]pyrazin-5(4H)-yl) prop-2-en-1-one (isomer 2)]	435	216	–	75.1
Cc1c[nH]c2nccc(-c3c(-c4ccc(C(F)(F)F)cc4)nn4c3C(C)N(C(=O)/C=C/CN(C)C)CC4)c12 (single isomer, unassigned; isomer 2) [Example 253, 4-(dimethylamino)-1-(4-methyl-3-(3-methyl-1H-pyrrolo[2,3-b]pyridin-4-yl)-2-(4-(trifluoromethyl)phenyl)-6,7-dihydropyrazolo[1,5-a]pyrazin-5(4H)-yl) but-2-en-1-one (isomer 2)]	247	3950	–	490
CC1c2c(-c3ccnc4[nH]ccc34)c(-c3ccc(F)cc3)nn2CCN1C(=O)/C=C/CN(C)C (single isomer, unassigned; isomer 2) [Example 267, (E)-4-(dimethylamino)-1-(2-(4-fluorophenyl)-4-methyl-3-(1H-pyrrolo[2,3-b]pyridin-4-yl)-6,7-dihydropyrazolo[1,5-a]pyrazin-5(4H)-yl) but-2-en-1-one (isomer 2)]	24.9	21.7	–	257
C=CC(=O)N1Cc2c(-c3ccncc3)c(-c3ccc(OC)cc3)nn2C(C)C1 (single isomer, unassigned; isomer 2) [Example 275, 1-[2-(4-methoxyphenyl)-7-methyl-3-(pyridin-4-yl)-6,7-dihydropyrazolo[1,5-a]pyrazin-5(4H)-yl]prop-2-en-1-one (isomer 2)]	0.476	1.22	–	16.8

The remaining compounds from weak to strong by IC50 [1], led by results:

IC50 [1] [nM]	IC50 [2] [nM]	Compound	IC50 (BA/F3 (insSVD) cells; Mus musculus, BaF3, 48 h) [nM]	IC50 (BA/F3 (insSVD) cells; 48 h) [nM]
7490	> 1630	Cc1c[nH]c2nccc(-c3c(-c4ccc(F)cc4)nn4c3C(C)N(C(=O)/C=C/CN(C)C)CC4)c12 (single isomer, unassigned; isomer 2) [Example 256, (E)-4-(dimethylamino)-1-(2-(4-fluorophenyl)-4-methyl-3-(3-methyl-1H-pyrrolo[2,3-b]pyridin-4-yl)-6,7-dihydropyrazolo[1,5-a]pyrazin-5(4H)-yl) but-2-en-1-one (isomer 2)]	158	–
11.7	2840	CC1c2c(-c3ccnc4[nH]ccc34)c(-c3ccc(C(F)(F)F)cc3)nn2CCN1C(=O)/C=C/CN(C)C (single isomer, unassigned; isomer 2) [Example 252, 4-(dimethylamino)-1-[4-methyl-3-(1H-pyrrolo[2,3-b]pyridin-4-yl)-2-[4-(trifluoromethyl)phenyl]-6,7-dihydropyrazolo[1,5-a]pyrazin-5(4H)-yl]but-2-en-1-one (isomer 2)]	180	–
6.99	933	C=CC(=O)N1CCn2nc(-c3ccc(C(F)(F)F)cc3)c(-c3ccnc4[nH]ccc34)c2C1C (single isomer, unassigned; isomer 2) [Example 247, 1-(4-methyl-3-(1H-pyrrolo[2,3-b]pyridin-4-yl)-2-(4-(trifluoromethyl)phenyl)-6,7-dihydropyrazolo[1,5-a]pyrazin-5(4H)-yl) prop-2-en-1-one (isomer 2)]	134	–
6.5	7.3	C=CC(=O)N1CCn2nc(-c3ccc(F)cc3)c(-c3ccnc4[nH]ccc34)c2C1C (single isomer, unassigned; isomer 2) [Example 261, 1-(2-(4-fluorophenyl)-4-methyl-3-(1H-pyrrolo[2,3-b]pyridin-4-yl)-6,7-dihydropyrazolo[1,5-a]pyrazin-5(4H)-yl) prop-2-en-1-one (isomer 2)]	–	111
